This is an account of results in ChEMBL document CHEMBL1121838, “Synthesis and anticholinergic properties of the enantiomers of 4-(isopropylamino)-2-(2-pyridyl)-2-phenylbutyramide, the mono-N-dealkylated metabolite of disopyramide” (J Med Chem, 1981).

Assay [1] is filed under the species Cavia porcellus. The assay can be described thus: Inhibitory concentration of guinea pig ileum longitudinal muscle produced in response to electrically simulated release of acetylcholine. The class given is functional, Muscle tissue.
Assay [2] is filed under the species Cavia porcellus. Kind of assay: Mean dissociation constant was measured for acetylcholine-induced contractions. The assay is classed as functional.
The species named for assay [3] is Cavia porcellus. The assay can be described thus: Inhibitory concentration of guinea pig ileum longitudinal muscle strips to antagonize electrically stimulated contractions. The class given is functional. The conditions noted are these: Muscle tissue.

In the case of `CC(C)NCC[C@@](C(N)=O)(c1ccccc1)c1ccccn1` (stereo in doubt; 2 (2R)), the midpoint of inhibition in assay [1], the IC50, lay at 14 µM.
On to `CC(C)NCC[C@@](C(N)=O)(c1ccccc1)c1ccccn1` (stereo in doubt; 2 (2S)), for which the IC50 (usually the concentration at which inhibition is half-maximal) in assay [1] was 5 µM.
As to `CC(C)N(CC[C@](C(N)=O)(c1ccccc1)c1ccccn1)C(C)C` [(S)-DISOPYRAMIDE], in assay [1] (Cavia porcellus, Muscle tissue), inhibition was half-maximal at 4.5 µM (IC50).
As to `CC(C)N(CCC(C(N)=O)(c1ccccc1)c1ccccn1)C(C)C` (configuration not stated) [DISOPYRAMIDE], in assay [2], the affinity, expressed as Kd, was 2.2 µM. The same molecule gave a half-inhibitory concentration (IC50) in assay [3] of 1.5 µM.
For the molecule `CC(C)NCCC(C(N)=O)(c1ccccc1)c1ccccn1` (configuration not stated) [N-MONODEISOPROPYL DISOPYRAMIDE], the affinity in assay [2], expressed as Kd, was 3.8 µM. The molecule further had a concentration for half-maximal inhibition (IC50) in assay [3] of 3.2 µM.
